Patent US4661471A, “Method of inhibiting and inducing human platelet aggregation” (New England Deaconess Hospital, priority 1984, dated 1987)
pIC50: −log10 of the molar value. Ends that are not written are not given here.

Legend:
[1] = test system: fibrinogen binding to Human platelets; assay: Inhibition of 125I-fibrinogen binding to ADP-treated human platelets; conditions: 10^8 platelets/0.5 ml treated with 5-10 micromoles of ADP; 125I-labelled fibrinogen; read-out: IC50 or 50% inhibition of fibrinogen binding
Procedure: The following experiment illustrates that the peptides of the invention can inhibit fibrinogen binding to platelets. Human platelets at a concentration of 10^8 cells/0.5 ml were treated with 5-10 micromoles of ADP. Various concentrations of the inhibitory peptides were mixed with the platelets and then […] ^125 I-labelled fibrinogen was added to the solution. The IC50 or 50% inhibition of fibrinogen binding was determined for each peptide by allowing the reaction to proceed to a conclusion, separating the platelets from unbound ^125 I-fibrinogen and determining the amount of labelled fibrinogen bound to the platelets. The less labelled fibrinogen bound to the platelets, the better the inhibition.

human platelets [2] = assay: Inhibition of ADP-induced fibrinogen (gamma chain multimer) cross-linked aggregation of platelets, light transmission; format: cell-based; parameters: dose or concentration left out as unconfirmed; conditions: 10^8 platelets treated with 5-10 micromoles of ADP; 7 micromoles of gamma chain fibrinogen multimers
Procedure: The sole figure of the drawing illustrates the inhibition of ADP-induced fibrinogen dependent platelet aggregation caused by incubation with various peptides of the invention.
A 60 µM concentration of a variety of synthetic peptides of the invention was added to 10^8 platelets which had been treated with 5-10 micromoles of ADP. At time zero, 7 micromoles of gamma chain fibrinogen multimers was added and the transmission of the solution was monitored for platelet aggregate formation. FIG. 1 illustrates the results of this experiment. […] While gamma chain multimers were used, similar results have been obtained with bivalent fibrinogen molecules.

human platelets [3] = assay: Aggregation of ADP-treated platelets separated from plasma proteins by the synthetic peptide-albumin conjugate, in the absence of fibrinogen; format: cell-based; conditions: peptide added to the platelets prior to the conjugate
Procedure: Ten micromoles of ADP was added to 10^8 platelets which had been separated from the plasma proteins.

pIC50 [1]	Substance	inhibition of the aggregation reaction (transmission) (human platelets [2])	inhibition of aggregation induced by the synthetic peptide-albumin conjugate (human platelets [3])
4.55	Cys-Tyr-Gly-Gln-Gln-His-His-Leu-Gly-Gly-Ala-Lys-Gln-Ala-Gly-Asp-Val-COOH (CYGQQHHLGGAKQAGDV-OH) [heptadecapeptide]		
4.55	HHLGGAKQAGDV [dodecapeptide]	almost complete inhibition	the aggregation reaction is inhibited
